{"source": "paper PMC6312923", "about": "(Life Science Alliance, 2018)", "molecules": {"B1": {"name": "Cdt2^PIP-3A: Cdt2 with I709, Y712, and F713 all mutated to alanine (protein, UniProt Q9NZJ0 1-730, looked up, variant I709A Y712A F713A)", "Denticleless protein homolog": "MLFNSVLRQPQLGVLRNGWSSQYPLQSLLTGYQCSGNDEHTSYGETGVPVPPFGCTFSSAPNMEHVLAVANEEGFVRLYNTESQSFRKKCFKEWMAHWNAVFDLAWVPGELKLVTAAGDQTAKFWDVKAGELIGTCKGHQCSLKSVAFSKFEKAVFCTGGRDGNIMVWDTRCNKKDGFYRQVNQISGAHNTSDKQTPSKPKKKQNSKGLAPSVDFQQSVTVVLFQDENTLVSAGAVDGIIKVWDLRKNYTAYRQEPIASKSFLYPGSSTRKLGYSSLILDSTGSTLFANCTDDNIYMFNMTGLKTSPVAIFNGHQNSTFYVKSSLSPDDQFLVSGSSDEAAYIWKVSTPWQPPTVLLGHSQEVTSVCWCPSDFTKIATCSDDNTLKIWRLNRGLEEKPGGDKLSTVGWASQKKKESRPGLVTVTSSQSTPAKAPRAKCNPSNSSPSSAACAPSCAGDLPLPSNTPTFSIKTSPAKARSPINRRGSVSSVSPKPPSSFKMSIRNWVTRTPSSSPPITPPASETKIMSPRKALIPVSQKSSQAEACSESRNRVKRRLDSSCLESVKQKCVKSCNCVTELDGQVENLHLDLCCLAGNQEDLSKDSLGPTKSSKIEGAGTSISEPPSPISPYASESCGTLPLPLRPCGEGSEMVGKENSSPENKNWLLAMAAKRKAENPSPRSPSSQTPNSRRQSGKKLPSPVTITPSSMRKACTAAHRKSQEDFCGPEHSTEL", "modifications": "FLAG tag", "notes": "Cdt2 with I709, Y712, and F713 all mutated to alanine"}}, "key": {"[1]": {"system": "MCF7 cells, DNA-damage (CPD) sites", "assay": "Recruitment of GFP-Cdt2 constructs to DNA-damage sites in MCF7 cells", "type": "cell-based, human", "conditions": "MCF7, UV-C 50 J/m^2, GFP fusions; two independent experiments", "description": "Figure 2. The C-terminus of Cdt2 mediates Cdt2 recruitment to sites of damage. (A) A schematic drawing of the domain structure of Cdt2 and constructs used. (B) The C-terminal, but not the N-terminal, part of Cdt2 mediates recruitment to DNA damage sites. MCF7 cells transfected with the indicated plasmids were locally UV-C irradiated (50 J/m^2 through 5 μm pore diameter micropore filters), and recruitment of each Cdt2 construct to sites of damage was examined by staining with α-CPD antibody and GFP signal.\nFor Western blotting, whole-cell lysates were prepared by lysing cell pellets directly in SDS–PAGE buffer. For immunofluorescence, U2OS or HEK293 cells were fixed in 4% paraformaldehyde (PFA; WAKO) for 10 min, permeabilized in 0.25% (vol/vol) Triton X-100 in PBS, and stained with the indicated antibodies as described previously. […] For cyclobutane pyrimidine dimer (CPDs) staining, MCF7 and HeLa cells were fixed in 4% PFA for 10 min, permeabilized in 0.3% Triton X-100 in PBS, and then incubated in 0.5 N NaOH for 5 min for DNA denaturation before immunofluorescence. Alexa488-conjugated anti-mouse and […] anti-rabbit antibodies were used as secondary antibodies with Hoechst 33258 to visualize DNA. […] Protein levels were analysed by ImageJ software.\nWe used a method to induce DNA photoproducts within localized areas of the cell nucleus as described in Ishii et al (2010). To perform micropore UV irradiation, cells were cultured on cover slips, washed twice with PBS, and subsequently covered with an isopore polycarbonate membrane filter (Millipore) with a pore size of either 3 or 5 μm in diameter, and irradiated. UV irradiation was achieved using a UV lamp (SUV-16, As One, Japan) with a dose rate of 0.4 J/m^2·s, which was monitored with a UV radiometer (UVX Radiometer, UVP) at 254 nm, or with a UV box equipped with a UV-C lamp monitored with a VLX-3W radiometer (Vilber Lourmat) at 254 nm (CX-254 sensor). The filter was removed and cells were either fixed or cultured for the indicated time before fixation, and processed for immunofluorescence. […]"}, "[2]": {"system": "p21 poly-ubiquitination", "assay": "Poly-ubiquitination of p21 in HEK293 cells", "type": "cell-based, human", "conditions": "HEK293, MG132 3 h, chromatin fraction", "method": "Figure 6. The Cdt2 PIP box is important for its recruitment to DNA damage sites and replication foci and for poly-ubiquitination activity. (A) HEK293 and stable Cdt2^WT or Cdt2^PIP-3A cells were locally UV irradiated, and stained for XPA and FLAG (Cdt2). XPA-positive spots were examined for FLAG signal, and its frequency was counted (%). More than 50 spots were examined. bar:10 μm. […] Bar: 10 μm. […] (D) Whole-cell extracts were prepared from HEK293 and stably transfected cells of Cdt2^WT or Cdt2^PIP-3A cells, separated into soluble (Sup) and chromatin-containing insoluble (Ppt) fractions, and were examined for indicated proteins. The asterisk indicates nonspecific bands. (E) HEK293 and stably transfected cells of Cdt2^WT or Cdt2^PIP-3A were treated with MG132 for 3 h. Whole-cell extracts (WCE) were prepared, separated into soluble (Sup) and insoluble (Ppt) fractions, and blotted with the indicated antibodies.\nTo consider this possibility, asynchronously growing control HEK293 cells and cells expressing Cdt2^WT or Cdt2^PIP-3A were treated with proteasome inhibitor MG132 and the levels of poly-ubiquitinated Cdt1 were examined. […] Cdt2^PIP-3A-expressing cells however had reduced level of both poly-ubiquitinated Cdt1 and p21 on chromatin."}}}
{"molecule": "Cdt2: Cdt2 tagged with GFP, transiently expressed in MCF7 cells", "values": [{"measurement": "recruitment to DNA-damage sites", "setting": "[1]", "result": "robustly detected at DNA-damage sites"}]}
{"molecule": "B1", "values": [{"measurement": "poly-ubiquitinated p21 on chromatin", "setting": "[2]", "result": "reduced level"}]}
